Data taken from PubChem BioAssay (NCI).
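Cells were grown in 96-well plates and exposed to each compound for 48 hours at five concentrations; endpoints were interpolated linearly between bracketing concentrations, or set to the highest concentration if not reached. GI50 = concentration required for 50% inhibition of growth. TGI: concentration producing complete growth inhibition.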

Key:
Assay in all cases: NCI-60 cell line screen, 48 h; in the data active = GI50 below about 0.43 µM; inactive = the rest
786-0 renal = system: 786-0 renal
A498 renal = system: A498 renal
A549 NSCLC = system: A549 NSCLC
ACHN renal = system: ACHN renal
CAKI-1 renal = system: CAKI-1 renal
CCRF-CEM leukemia = system: CCRF-CEM leukemia
COLO 205 colon = system: COLO 205 colon
DLD-1 colon = system: DLD-1 colon
DMS 114 small cell lung = system: DMS 114 small cell lung
DMS 273 small cell lung = system: DMS 273 small cell lung
EKVX NSCLC = system: EKVX NSCLC
HCC-2998 colon = system: HCC-2998 colon
HCT-116 colon = system: HCT-116 colon
HCT-15 colon = system: HCT-15 colon
HL-60(TB) leukemia = system: HL-60(TB) leukemia
HOP-62 NSCLC = system: HOP-62 NSCLC
HOP-92 NSCLC = system: HOP-92 NSCLC
HT29 colon = system: HT29 colon
IGROV1 ovarian = system: IGROV1 ovarian
K-562 leukemia = system: K-562 leukemia
KM12 colon = system: KM12 colon
KM20L2 colon = system: KM20L2 colon
LOX IMVI melanoma = system: LOX IMVI melanoma
LXFL 529 NSCLC = system: LXFL 529 NSCLC
M14 melanoma = system: M14 melanoma
M19-MEL melanoma = system: M19-MEL melanoma
MALME-3M melanoma = system: MALME-3M melanoma
MOLT-4 leukemia = system: MOLT-4 leukemia
NCI-H226 lung = system: NCI-H226 lung
NCI-H23 lung = system: NCI-H23 lung
NCI-H460 lung = system: NCI-H460 lung
NCI-H522 lung = system: NCI-H522 lung
OVCAR-3 ovarian = system: OVCAR-3 ovarian
OVCAR-4 ovarian = system: OVCAR-4 ovarian
OVCAR-5 ovarian = system: OVCAR-5 ovarian
OVCAR-8 ovarian = system: OVCAR-8 ovarian
RPMI-8226 leukemia = system: RPMI-8226 leukemia
RXF 393 renal = system: RXF 393 renal
SF-268 CNS = system: SF-268 CNS
SF-295 CNS = system: SF-295 CNS
SF-539 CNS = system: SF-539 CNS
SK-MEL-2 melanoma = system: SK-MEL-2 melanoma
SK-MEL-28 melanoma = system: SK-MEL-28 melanoma
SK-MEL-5 melanoma = system: SK-MEL-5 melanoma
SK-OV-3 ovarian = system: SK-OV-3 ovarian
SN12C renal = system: SN12C renal
SNB-19 CNS = system: SNB-19 CNS
SNB-75 CNS = system: SNB-75 CNS
SNB-78 CNS = system: SNB-78 CNS
SW-620 colon = system: SW-620 colon
TK-10 renal = system: TK-10 renal
U251 CNS = system: U251 CNS
UACC-257 melanoma = system: UACC-257 melanoma
UACC-62 melanoma = system: UACC-62 melanoma
UO-31 renal = system: UO-31 renal
XF 498 CNS = system: XF 498 CNS

CCCCCCC[CH2][Sn]([Cl])([Cl])[CH2]CCCCCCC
6.09 µM: TGI (U251 CNS)
29.4 µM: TGI (TK-10 renal)
12.6 µM: TGI (RPMI-8226 leukemia)
4.97 µM: TGI (UACC-62 melanoma)
19.5 µM: TGI (M14 melanoma)
10.8 µM: TGI (LXFL 529 NSCLC)
19.7 µM: TGI (K-562 leukemia)
27.5 µM: TGI (HOP-62 NSCLC)
25 µM: TGI (SF-295 CNS)
17 µM: TGI (HCC-2998 colon) | TGI (OVCAR-3 ovarian)
23.2 µM: TGI (CAKI-1 renal) | TGI (KM20L2 colon)
19.9 µM: TGI (ACHN renal) | TGI (SN12C renal)
17.3 µM: TGI (COLO 205 colon)
22.2 µM: TGI (EKVX NSCLC)
18.8 µM: TGI (A498 renal) | TGI (KM12 colon) | TGI (NCI-H23 lung)
4.95 µM: TGI (NCI-H522 lung)
16.6 µM: TGI (OVCAR-8 ovarian) | TGI (SF-539 CNS)
11.2 µM: TGI (HL-60(TB) leukemia)
19.4 µM: TGI (SK-MEL-5 melanoma)
15.4 µM: TGI (SF-268 CNS)
20 µM: TGI (HT29 colon) | TGI (SNB-19 CNS)
18.4 µM: TGI (HOP-92 NSCLC)
13.9 µM: TGI (DMS 114 small cell lung)
inactive: GI50 (786-0 renal) 4.58 µM | GI50 (A498 renal) 6.51 µM | GI50 (A549 NSCLC) 17.5 µM | GI50 (ACHN renal) 7.17 µM | GI50 (CAKI-1 renal) 11 µM | GI50 (CCRF-CEM leukemia) 3.27 µM | GI50 (COLO 205 colon) 6 µM | GI50 (DLD-1 colon) 5.37 µM | GI50 (DMS 114 small cell lung) 3.93 µM | GI50 (DMS 273 small cell lung) 4.9 µM | GI50 (EKVX NSCLC) 10.4 µM | GI50 (HCC-2998 colon) 4.23 µM | GI50 (HCT-116 colon) 3.66 µM | GI50 (HCT-15 colon) 5.69 µM | GI50 (HL-60(TB) leukemia) 3.29 µM | GI50 (HOP-62 NSCLC) 14.5 µM | GI50 (HOP-92 NSCLC) 5.27 µM | GI50 (HT29 colon) 6.83 µM | GI50 (IGROV1 ovarian) 7.61 µM | GI50 (K-562 leukemia) 3.66 µM | GI50 (KM12 colon) 5.98 µM | GI50 (KM20L2 colon) 11.1 µM | GI50 (LOX IMVI melanoma) 3.56 µM | GI50 (LXFL 529 NSCLC) 3.05 µM | GI50 (M14 melanoma) 6.94 µM | GI50 (M19-MEL melanoma) 9.31 µM | GI50 (MALME-3M melanoma) 5.2 µM | GI50 (MOLT-4 leukemia) 2.96 µM | GI50 (NCI-H226 lung) 10.1 µM | GI50 (NCI-H23 lung) 6.84 µM | GI50 (NCI-H460 lung) 13.2 µM | GI50 (NCI-H522 lung) 2.3 µM | GI50 (OVCAR-3 ovarian) 4.91 µM | GI50 (OVCAR-4 ovarian) 10.5 µM | GI50 (OVCAR-5 ovarian) 13.3 µM | GI50 (OVCAR-8 ovarian) 4.46 µM | GI50 (RPMI-8226 leukemia) 2.24 µM | GI50 (RXF 393 renal) 2.7 µM | GI50 (SF-268 CNS) 4.11 µM | GI50 (SF-295 CNS) 12.5 µM | GI50 (SF-539 CNS) 4.36 µM | GI50 (SK-MEL-2 melanoma) 2.45 µM | GI50 (SK-MEL-28 melanoma) 3.82 µM | GI50 (SK-MEL-5 melanoma) 6.88 µM | GI50 (SK-OV-3 ovarian) 16.6 µM | GI50 (SN12C renal) 7.41 µM | GI50 (SNB-19 CNS) 7.15 µM | GI50 (SNB-75 CNS) 3.67 µM | GI50 (SNB-78 CNS) 6.25 µM | GI50 (SW-620 colon) 6.66 µM | GI50 (TK-10 renal) 16 µM | GI50 (U251 CNS) 2.21 µM | GI50 (UACC-257 melanoma) 4.38 µM | GI50 (UACC-62 melanoma) 2.05 µM | GI50 (UO-31 renal) 10.6 µM | GI50 (XF 498 CNS) 4.9 µM
18.1 µM: TGI (MALME-3M melanoma) | TGI (SNB-75 CNS)
26.2 µM: TGI (OVCAR-5 ovarian)
16.8 µM: TGI (DMS 273 small cell lung)
7.47 µM: TGI (SK-MEL-2 melanoma)
20.3 µM: TGI (IGROV1 ovarian)
22.4 µM: TGI (NCI-H226 lung) | TGI (OVCAR-4 ovarian) | TGI (UO-31 renal)
17.1 µM: TGI (786-0 renal)
26.8 µM: TGI (NCI-H460 lung)
21.4 µM: TGI (SNB-78 CNS)
34.3 µM: TGI (A549 NSCLC)
9.01 µM: TGI (RXF 393 renal)
18.7 µM: TGI (HCT-15 colon)
30.2 µM: TGI (SK-OV-3 ovarian)
16.5 µM: TGI (XF 498 CNS)
15.9 µM: TGI (UACC-257 melanoma)
10.5 µM: TGI (MOLT-4 leukemia)
19.3 µM: TGI (SW-620 colon)
12.9 µM: TGI (SK-MEL-28 melanoma)
21.3 µM: TGI (M19-MEL melanoma)
11.5 µM: TGI (LOX IMVI melanoma)
17.6 µM: TGI (DLD-1 colon)
10.9 µM: TGI (CCRF-CEM leukemia)
15.3 µM: TGI (HCT-116 colon)

C[C@]12CC[C@H](O)CC1=CC[C@@H]1C2CC[C@]2(C)NC(=O)C(C#N)CC12 (stereo partly specified)
> 100 µM: TGI (786-0 renal) | TGI (A498 renal) | TGI (A549 NSCLC) | TGI (ACHN renal) | TGI (CAKI-1 renal) | TGI (CCRF-CEM leukemia) | TGI (DLD-1 colon) | TGI (DMS 114 small cell lung) | TGI (DMS 273 small cell lung) | TGI (EKVX NSCLC) | TGI (HCC-2998 colon) | TGI (HCT-116 colon) | TGI (HCT-15 colon) | TGI (HL-60(TB) leukemia) | TGI (HOP-62 NSCLC) | TGI (HT29 colon) | TGI (IGROV1 ovarian) | TGI (K-562 leukemia) | TGI (KM12 colon) | TGI (KM20L2 colon) | TGI (LXFL 529 NSCLC) | TGI (M14 melanoma) | TGI (M19-MEL melanoma) | TGI (MALME-3M melanoma) | TGI (MOLT-4 leukemia) | TGI (NCI-H226 lung) | TGI (NCI-H23 lung) | TGI (NCI-H460 lung) | TGI (OVCAR-3 ovarian) | TGI (OVCAR-4 ovarian) | TGI (OVCAR-5 ovarian) | TGI (OVCAR-8 ovarian) | TGI (RPMI-8226 leukemia) | TGI (RXF 393 renal) | TGI (SF-295 CNS) | TGI (SF-539 CNS) | TGI (SK-MEL-2 melanoma) | TGI (SK-MEL-28 melanoma) | TGI (SK-MEL-5 melanoma) | TGI (SK-OV-3 ovarian) | TGI (SNB-75 CNS) | TGI (SNB-78 CNS) | TGI (SW-620 colon) | TGI (TK-10 renal) | TGI (U251 CNS) | TGI (UACC-257 melanoma) | TGI (UACC-62 melanoma) | TGI (UO-31 renal) | TGI (XF 498 CNS)
